The record followed here is publication PMC5329948, “Caspase vinyl sulfone small molecule inhibitors prevent axonal degeneration in human neurons and reverse cognitive impairment in Caspase-6-overexpressing mice” (Molecular Neurodegeneration, 2017).

For the assay, the target named is T1, Casp6 in Casp6-transfected HCT116 cells (Homo sapiens, UniProt P55212).
T1 construct: The mammalian constructs encoding human Casp6p20p10 in the pCep4β vector; expressed in transfected cells; host or cells: HCT116 human colon carcinoma cells
T1 sequence (P55212 24-179): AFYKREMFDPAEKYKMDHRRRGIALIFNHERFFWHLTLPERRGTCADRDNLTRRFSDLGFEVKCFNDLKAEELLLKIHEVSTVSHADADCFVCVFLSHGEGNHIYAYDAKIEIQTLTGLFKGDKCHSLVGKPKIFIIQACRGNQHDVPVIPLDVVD
T1 sequence (P55212 194-293): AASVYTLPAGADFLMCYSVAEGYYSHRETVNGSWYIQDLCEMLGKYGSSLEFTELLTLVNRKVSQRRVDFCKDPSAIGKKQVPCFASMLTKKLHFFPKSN
As to the kind of experiment: Casp6 VEIDase activity in extracts of Casp6p20p10-transfected HCT116 cells treated with inhibitor. Conditions: for Casp6 activity rise within 15 min of inhibitor removal / activity at 100 µM: 100 μM for 2 h, mean ± SEM; for Casp6 activity rise within 15 min of inhibitor removal: then fresh media 15 min; for decrease of Casp6 VEIDase activity within 15 min of treatment / decrease of Casp6 activity: 100 μM, Casp6-transfected HCT116; for decrease of Casp6 activity: 2 h; for activity at 100 µM: HCT-116, then fresh media 2 h, % of initial activity, read-out: Casp6 activity recovered 2 h after inhibitor removal; for IC50: cells treated for 2 h, read-out: IC50 on Casp6 activity in pCep4β-Casp6p20p10-transfected HCT116 cells. The format is cell-based. The procedure:
HCT116: Human colon carcinoma (HCT116) cells (ATCC, Manassas, VA, USA) were cultured in McCoy’s 5A modified media (Thermo Fisher Scientific, Waltham, MA, USA) supplemented with 10% fetal bovine serum (Thermo Fisher Scientific, Waltham, MA, USA) and transfected with 1 μg of pCep4βCasp6p20p10 mixed with 8 μg of polyethyleneimine (Polysciences Inc., Warrington, PA, USA). Protein expression was allowed for 24 h before treating with vehicle (PBS), 100 μM NWL-117, or 100 μM NWL-154 for 2 h. For NWL inhibitor kinetic experiments, 100 μM of NWL-117 or NWL-154 was added at 120, 90, 60, 30, 15, or 0 min before harvest. […] For recovery time course experiments, after the initial treatment with 100 μM of NWL-117 or −154 for 2 h, the media was replaced with fresh media for 120, 90, 60, 30, 15, or 0 min before harvest. Primary Human CNS neurons: Cortical tissues were obtained from the Birth Defects Research Laboratory (BDRL, University of Washington, Seattle, USA) in accordance with NIH ethical guidelines approved by McGill University’s institutional review board and primary neurons cultured as previously described. Primary human neurons were seeded on poly-L-lysine-coated (5 μg/mL) 6-well plates or glass coverslips coated with poly-L-lysine and laminin (5 μg/mL) (Sigma-Aldrich, Oakville, ON, CA) at a density of 3x10^6 cells/mL. Primary human neurons were pre-treated with 0.1 μM epoxomicin (Enzo LifeSciences, Farmingdale, NY, USA) and 100 μM NWL-117, 100 μM NWL-154, or vehicle (PBS) for 2 h, and serum-deprived for 2 h in the presence of epoxomicin and vehicle (PBS), 100 μM NWL-117, or 100 μM NWL-154 before harvesting or measuring caspase activity with FLICA, as described below.
Recombinant or extracted cellular Casp6 activity: Casp6 activity was assessed by in vitro fluorogenic assays using Ac-Val-Glu-Ile-Asp-(7-Amino-4-trifluoromethylcouramin) (Ac-VEID-AFC: Enzo LifeSciences, NY, USA) as the Casp6 substrate. The activity was measured in Stennicke’s buffer (SB) (20 mM piperazine-N, N-bis (2-ethanesulfonic acid) (PIPES: BioShop Canada Inc, Burlington, Ontario, CA) pH 7.2, 30 mM NaCl, 1 mM ethylenediaminetetraacetic acid (EDTA), 0.1% 3-[(3-cholamidopropyl)-dimethylammonio]-2-hydroxy-1-propanesulfonic acid (CHAPS), 10% sucrose). The reaction mix consisted of either 20 nM RCasp6 or 20–30 μg cellular protein extracts, SB, 10 mM DTT, 10 μM VEID-AFC substrate and deionized water. The activity was measured in a black clear bottom 96-well plate (Costar, Corning, NY, USA) at 50 μL/well in triplicate at 37 °C in the Synergy H4 plate reader (BioTek) at excitation 380 nm and emission 505 nm every two minutes for 100 min. Fluorescence units were converted to the moles of AFC released based on a standard curve of 0–625 picomoles of free AFC. Cleavage rates were calculated from the linear phase of the assay. The activity is considered on a percentage scale where no inhibitor present is equated to 100% activity of the enzyme. Cellular Casp6 activity assay by FLICA: Active Casp6 was labeled within primary human neurons using the fluorescent inhibitor of Casp6 (FLICA) (FAM-VEID-fmk, ImmunoChemistry, Bloomington, MN, USA) following the manufacturer’s protocol. Briefly, FLICA reagent and Hoechst 33342 were added to a black clear bottom 96-well plate containing 100,000 of the treated-primary human neurons for 2 h at 37 °C in 5% CO2. The cells were rinsed twice with wash buffer and fresh media was added to the cells. The fluorescence of FAM-VEID-fmk was measured at 490 nm excitation and 520 nm emission with bandwidth reduced to 8 nm in the Synergy H4 plate reader (BioTek). The Hoechst signal was measured by excitation at 360 nm and emission at 485 nm.
The half-maximal inhibitory concentrations (IC50) for NWL inhibitors (Patent publication # WO/2009/140765, WO/2010/133000, and WO/2012/140500) was determined by incubating 0 to 20 μM NWL-117 and NWL-154 with 20 nM of active site-titrated Casp6 in SB at room temperature for 5 minutes. […]

On to `CCC(C)[C@H](NC(=O)[C@H](CCC(=O)O)NC(=O)[C@@H](NC(=O)OCc1ccccc1)C(C)C)C(=O)N[C@H](/C=C/S(C)(=O)=O)CC(=O)O` (stereo partly shown) [NWL-117], for which the “Casp6 activity rise within 15 min of inhibitor removal” value amounted to 43%, the “decrease of Casp6 VEIDase activity within 15 min of treatment” value worked out at 88%, the “decrease of Casp6 activity” value was found to be 80% and the activity at 100 µM stood at 85%. Further, the IC50 is 4.82 µM.
In the same order, the values of `CCC(C)[C@H](NC(=O)[C@H](CCC(=O)O)NC(=O)[C@@H](NC(=O)OCc1ccccc1)C(C)C)C(=O)N[C@H](/C=C(\Cl)S(C)(=O)=O)CC(=O)O` (stereo partly shown) [NWL-154] are 21%, 95%, 96%, 30% and 3.63 µM.
